Molecules are shown by their SMILES. Read-outs that look alike come from different tables or passages of the source.

We go through three molecules from patent US20260069538A1, “CXCR4 ANTAGONIST LOADED LIPOSOMES AND SILICASOMES” (The Regents of the University of California, priority 2021, published 2026).

Data set [1] concerns human PDAC slices. To be noted: cited from earlier work.
Data set [2] relates to metastatic BC models (including 4T1). To be noted: in vivo; cited from earlier work.
For data set [3] the following is noted: for EE % / LC %: liposome DSPC:Chol:DSPE-PEG2000 3:2:0.15, drug feed ratio 20% (drug:lipids w/w).
Description: This was followed by incubating the liposome suspension in the suspended CXCR4 antagonists using a feed ratio of 20%. The non-incorporated drug was removed by a PD-10 column.
To perform the drug loading, Mavorixafor (MAV or AMD11070) was prepared as stock solution in PBS and added at 20% w/w over the total wt. of the lipids. The MAV/liposome mixed solution was then heated at 65° C. for 1 h then cooled at room temperature for 30 minutes. The separation of encapsulated liposomal MAV (L-MAV) and non-encapsulated MAV (free MAV) was again, through the use of PD10 size exclusion column.
The elution profile of the free MAV is pre-determined by eluting free MAV through the PD10 and measuring the UV absorbance for each elution fraction at λmax 275 nm. In a typical run a 95%+ MAV recovery will be found between 10-20 mL fractions. The free-MAV fractions was collected and combined to quantify the free-MAV by UV at λmax 275 nm. Again, the L-MAV was collected from elution 2.75-5.75 mL (3 mL in total), the free-MAV was collected from 10-20 mL fractions.
Based on the free-MAV quantification, the drug loading of L-MAV was back calculated by subtracting the free MAV from the initial MAV feeding=20% w/w. […] Based on the drug loaded L-MAV concentration (mg/mL), L-MAV was concentrated by using 50 mL VIVA-spin tubes at 30 kDa cut-off to a final concentration of 0.1 mg/mL (=0.5 mg/kg per 200 μL injection for a 20 g mouse).
Data set [4] is described as follows: Remote loading of CXCR4 antagonists in silicasomes (encapsulation efficiency, loading capacity). Format: physicochemical. Conditions: for EE % / LC %: silicasome. The protocol: Following the application of a lipid bilayer, we used the weak basic properties of the of CXCR4 antagonists (AMD3100, AMD3465, AMD070) to attempt silicasome remote loading. To optimize the loading efficiency, two type of trapping agents, triethylammonium sucrose octasulfate (TEA8SOS) and ammonium sulfate ((NH4)2SO4) were tested. Briefly, for lipid coating, 40 mg/mL of the purified MSNPs were soaked in trapping agent solution (80 mM TEA8SOS or 300 mM (NH4)2SO4)) and were added to an ˜50% (w/v) lipids mixture (DSPC/Chol/DSPE-PEG2000, in the molar ratio of 3:2:0.15) solution in ethanol. The MSNP:lipid ratio was 1:1.25 (w/w). The suspension was sonicated using probe sonication (Ultrasonic Processor Model VCX130, 40% amplitude) at a 15 s/15 s on/off cycle.
The free trapping agent was removed through size exclusion chromatography using Sepharose CL-4B resin with a HEPES-buffered dextrose solution (5 mM HEPES, 5% dextrose, pH 6.5) for elution. For drug import, trapping agent-loaded particles were mixed with drug and incubated at 65° C. for 0.5 hour. The drug-laden silicasomes were purified by centrifugation to remove the free drug and liposomes; then filtered with a 0.2 μm membrane for sterilization. The drug concentration was determined by either UV spectroscopy or HPLC. Particle hydrodynamic size and zeta potential were measured by a ZETAPALS instrument (Brookhaven Instruments Corporation). The final product was visualized by cryoEM (TF20 FEI Tecnai-G2) to confirm the uniformity and integrity of the coated lipid bilayer.

Data set [5] deals with X4 HIV strains. To be noted: read-out: inhibits the replication of X4 HIV strains (IC50); cited from earlier work.
Data set [6] concerns 4T1 tumors. Kind of data set: Orthotopic 4T1 TNBC tumor model. Conditions: for tumor shrinkage / tumor size: orthotopic 4T1, IV administration.
Excerpt: Orthotopic 4T1 tumors were established as described in FIGS. 2-4.
The subject of data set [7] is EMT6 tumors. Kind of data set: Orthotopic EMT6 breast cancer model. Format: in vivo, mouse (Balb/c).
For data set [8], the system named is KPC tumors. Briefly: Orthotopic KPC model: tumor weight and immunophenotyping. It is filed as in vivo, mice.
Where [9] appears, read: (NH4)2SO4, drug feed ratio 50% (drug:MSNP w/w).
The mark [10] stands for this setting: TEA8SOS, drug feed ratio 50% (drug:MSNP w/w).
Setting [11] is: TEA8SOS, drug feed ratio 10% (drug:MSNP w/w).
Setting [12] is: TEA8SOS, drug feed ratio 20% (drug:MSNP w/w).

For the molecule `c1cc(CN2CCCNCCNCCCNCC2)ccc1CN1CCCNCCNCCCNCC1` [AMD3100, Plerixafor], the “CTL migration to the juxta-tumoral PDAC compartment” value in data set [1] (tumor cell slices) was “improve CTL migration to the juxta-tumoral PDAC compartment”. Besides, the “CD8+ T-cell-mediated elimination of EpCAM+ PDAC cancer cells” value in data set [1] (tumor slice culture) was “did not exert similar effects”. Besides, in data set [2], the CTL recruitment result was “increase CTL recruitment”, the blood perfusion entry is reported as “improve blood perfusion”, the desmoplasia result is “decrease desmoplasia” and the immunosuppression entry is recorded as “decrease immunosuppression”. Moreover, the metastatic spread entry in data set [2] was “limit metastatic spread”. Moreover, in data set [3] ((NH4)2SO4), the EE % is listed as 19% and the LC % is given as 3.8%. In addition, in data set [3] (TEA8SOS), the EE % is 42.4% and the LC % was 8.5%. Further, in data set [4] (setting [9]), the EE % came to 27% and the LC % stood at 13.5%. In data set [4] (setting [10]), the EE % stood at 51% and the LC % is listed as 25.5%.

As a reminder, the IC50 is the midpoint of a concentration-inhibition curve. In the case of `c1ccc(CNCc2ccc(CN3CCCNCCNCCCNCC3)cc2)nc1` [AMD3465], the EE % in data set [3] ((NH4)2SO4) is reported as 68.4%; in data set [3] (TEA8SOS) it was 37.4%; in data set [4] (setting [9]) it was 34.5%; in data set [4] (setting [10]), 25%. Also, the LC % in data set [3] ((NH4)2SO4) is 13.7%; in data set [3] (TEA8SOS), 7.5%; in data set [4] (setting [9]), 17.3%; in data set [4] (setting [10]), 12.5%. The IC50 in data set [5] was 1 to 10 nM.

In the case of `NCCCCN(Cc1nc2ccccc2[nH]1)[C@H]1CCCc2cccnc21` [AMD11070, Mavorixafor], the “T cell exclusion in the tumor margin (immunohistochemistry)” value in data set [6] (4T1 breast cancer tumors) is “interference in T cell exclusion in the margin”. For the same molecule, the “CD8+ spatial distribution during mIHC analysis” value in data set [6] (orthotopic 4T1) is recorded as “failed to show a significant effect”. The “lung metastasis (IVIS imaging of explanted lungs)” value is listed as “significant metastasis reduction” in data set [6] (orthotopic 4T1) and “significant impact on lung metastases” in data set [6] (orthotopic 4T1, listed as free AMD11070). Moreover, the “tumor shrinkage / tumor size” value was “leads to tumor shrinkage” in data set [6] (listed as Free AMD11070) and “tumor shrinkage could be obtained” in data set [6] (listed as free AMD11070). The “tumor growth / tumor shrinkage” value in data set [7] is “neither free nor L-AMD11070 were able to interfere in tumor growth”. Besides, the “CXCR4 staining intensity (immunohistochemistry)” value in data set [8] was “encapsulated but not free AMD11070 delivery could significantly increase CXCR4 staining intensity”. Moreover, the EE % is 55.8% in data set [3] ((NH4)2SO4); 84.3% in data set [3] (TEA8SOS); 68% in data set [4] (setting [9]); 95% in data set [4] (setting [11]); 85% in data set [4] (setting [12]); 70% in data set [4] (setting [10]). The LC % was 11.2% in data set [3] ((NH4)2SO4); 16.9% in data set [3] (TEA8SOS); 34% in data set [4] (setting [9]); 9.5% in data set [4] (setting [11]); 17% in data set [4] (setting [12]); 35% in data set [4] (setting [10]). Further, in data set [3] (liposome, 240 mM (NH4)2SO4, MAV feeding 20% w/w, back calculated from free MAV), the “Typical MAV loading” value is given as 8-15 % w/w. For the same molecule, the “best loading capacity (LC) in liposomes” value in data set [3] (liposomes) was 17%. The same molecule yielded a loading capacity in data set [4] (silicasome in which sucrose sulfate was used (FIG. 11)) of 20%.
